ChEMBL document CHEMBL3886283, “Cycloalkyl and heterocycloalkyl compounds as orexin receptor antagonists” (2015)

What was measured:
[1] = target: T1, Orexin/Hypocretin receptor type 1 (Homo sapiens, UniProt O43613); assay type: functional, cell-based, RBL-2H3
T1 sequence (O43613 whole entry): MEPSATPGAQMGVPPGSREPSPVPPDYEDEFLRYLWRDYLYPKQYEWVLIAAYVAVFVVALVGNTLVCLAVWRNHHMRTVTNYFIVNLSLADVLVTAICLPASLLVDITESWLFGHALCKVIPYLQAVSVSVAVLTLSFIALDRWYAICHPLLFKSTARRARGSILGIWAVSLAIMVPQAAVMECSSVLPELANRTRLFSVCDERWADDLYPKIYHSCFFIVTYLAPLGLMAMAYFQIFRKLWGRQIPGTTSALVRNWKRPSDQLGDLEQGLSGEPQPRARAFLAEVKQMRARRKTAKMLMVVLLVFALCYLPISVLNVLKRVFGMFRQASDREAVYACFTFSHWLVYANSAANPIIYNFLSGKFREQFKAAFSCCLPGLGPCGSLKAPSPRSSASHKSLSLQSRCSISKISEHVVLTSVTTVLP

Orexin receptor type 2 = target: T2, Orexin receptor type 2 (Homo sapiens, UniProt O43614); assay type: functional, cell-based, RBL-2H3
T2 sequence (O43614 whole entry): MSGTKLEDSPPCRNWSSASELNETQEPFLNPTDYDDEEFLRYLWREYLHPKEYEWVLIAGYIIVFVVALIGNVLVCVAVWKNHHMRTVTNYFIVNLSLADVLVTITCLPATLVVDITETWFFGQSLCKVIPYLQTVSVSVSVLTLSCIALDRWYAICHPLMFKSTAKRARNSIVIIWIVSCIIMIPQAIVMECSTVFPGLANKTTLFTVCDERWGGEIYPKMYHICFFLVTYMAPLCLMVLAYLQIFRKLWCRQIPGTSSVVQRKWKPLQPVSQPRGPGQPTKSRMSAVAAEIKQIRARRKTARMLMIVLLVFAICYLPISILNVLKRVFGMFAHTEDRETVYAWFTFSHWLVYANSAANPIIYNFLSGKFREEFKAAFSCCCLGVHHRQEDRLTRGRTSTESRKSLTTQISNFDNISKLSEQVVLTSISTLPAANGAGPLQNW

| IC50 [1] [nM] | IC50 (Orexin receptor type 2) [nM] | Structure (SMILES) |
| --- | --- | --- |
| 406 | > 10000 | O=C(N[C@H]1CCC[C@@H]1Nc1ccc(OC(F)(F)F)cn1)c1cc(Cl)ccc1-n1nccn1 |
| 270 | > 10000 | Cc1ccc(-n2nccn2)c(C(=O)N[C@H]2CCC[C@@H]2Nc2ccc(Cl)cn2)c1 |
| 367 | > 10000 | COc1cccc(Br)c1C(=O)N[C@H]1CCC[C@@H]1Nc1cnc(C(F)(F)F)cn1 |
